The target in experiment [1] is T1, PxutCSP19 (Papilio xuthus, UniProt A0A194QJK0). As to the kind of experiment: Binding of fluorescent probe 1-NPN to wildtype PxutCSP19 (titration, Scatchard). The method, then:
(§1) In order to investigate the ligand-binding properties of PxutCSP19 to host odorants and insecticides, we first asked whether this fluorescent probe 1-NPN was available for the binding of PxutCSP19. To calculate the binding ability of PxutCSP19 to 1-NPN, we titrated different final concentrations of 1-NPN (2~20 μM) into Tris-HCl buffer (pH 7.4) containing 2 μM PxutCSP19. The binding constant (K1-NPN) of 1-NPN to this protein was determined with GraphPad Prism 7 (GraphPad Software Inc., San Diego, CA), as previously described. The solution was excited at 337 nm and the emission peak was monitored at 414 nm on an RF-5301PC spectrofluorometer (Shimadzu, Kyoto, Japan) using a quartz micro-cuvette filled with a 100 μL mixture, with 5 nm excitation and emission slit widths. If the host odorant molecules could displace more than 40% of the 1-NPN fluorescence from the binding cavity of PxutCSP19, the compounds would be continuously added up to 36 μM with triplicates. For the binding experiments, each compound would be added into the PxutCSP19/1-NPN (each 2 μM) complex with final concentrations of 2~20 μM. […]

In experiment [2] the target is T2, PxutCSP19-T1 (Papilio xuthus, UniProt A0A194QJK0).
T2 sequence (A0A194QJK0 35-142): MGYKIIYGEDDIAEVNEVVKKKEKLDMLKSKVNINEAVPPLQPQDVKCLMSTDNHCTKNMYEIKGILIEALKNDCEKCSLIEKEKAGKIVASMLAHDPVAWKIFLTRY
The experiment is described as follows: Binding of fluorescent probe 1-NPN to PxutCSP19-T1 (titration, Scatchard). The conditions noted are these: read-out: K1-NPN (binding constant of 1-NPN). As for the experimental part: as §1

Experiment [3] addresses T3, PxutCSP19-T2 (Papilio xuthus, UniProt A0A194QJK0).
T3 sequence (A0A194QJK0 53-142): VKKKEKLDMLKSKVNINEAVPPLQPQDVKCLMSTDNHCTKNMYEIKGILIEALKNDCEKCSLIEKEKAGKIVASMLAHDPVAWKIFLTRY
The experiment is described as follows: Binding of fluorescent probe 1-NPN to PxutCSP19-T2 (titration, Scatchard). The conditions noted are these: read-out: K1-NPN (binding constant of 1-NPN). The method, then:
as §1

For experiment [4], the target named is T1, PxutCSP19. As to the kind of experiment: Fluorescence competitive binding assay (1-NPN displacement), wildtype PxutCSP19. An excerpt:
The open reading frame (ORF) of PxutCSP19 was cloned with a PrimeSTAR®® Max DNA Polymerase (TaKaRa, Liaoning, Dalian, China) and gene-specific primers containing restriction enzyme sites (BamH I and Xho I) (Table S2). The PCR products were detected on a 1.5% (w/v) agarose gel, and the expected bands were cut and purified using a HiPure Gel Pure DNA Mini Kit (Magen, Guangzhou, China). Next, BamH I and Xho I were used to digest the PxutCSP19 products and pET-30a (+) plasmids, followed by purification. A T4 DNA ligase (Thermo Fisher Scientific, Waltham, MA, USA) was applied to the construction of the recombinant plasmids pET-30a (+)/PxutCSP19. After being confirmed by sequencing, the plasmids were transformed into BL21 (DE3) competent cells so as to express recombinant proteins with 1.0 mM isopropyl β-D-thiogalactoside (IPTG). Because this recombinant protein pET-30a (+)/PxutCSP19 was insoluble, we applied a protein denaturation–renaturation approach to purify PxutCSP19 with an affinity chromatography technique, in which the denaturation buffer included 8 M urea and 1.0 mM β-mercaptoethanol.
(§2) In order to investigate the ligand-binding properties of PxutCSP19 to host odorants and insecticides, we first asked whether this fluorescent probe 1-NPN was available for the binding of PxutCSP19. To calculate the binding ability of PxutCSP19 to 1-NPN, we titrated different final concentrations of 1-NPN (2~20 μM) into Tris-HCl buffer (pH 7.4) containing 2 μM PxutCSP19. The binding constant (K1-NPN) of 1-NPN to this protein was determined with GraphPad Prism 7 (GraphPad Software Inc., San Diego, CA), as previously described. The solution was excited at 337 nm and the emission peak was monitored at 414 nm on an RF-5301PC spectrofluorometer (Shimadzu, Kyoto, Japan) using a quartz micro-cuvette filled with a 100 μL mixture, with 5 nm excitation and emission slit widths. If the host odorant molecules could displace more than 40% of the 1-NPN fluorescence from the binding cavity of PxutCSP19, the compounds would be continuously added up to 36 μM with triplicates. For the binding experiments, each compound would be added into the PxutCSP19/1-NPN (each 2 μM) complex with final concentrations of 2~20 μM. […] We used the Ki values to compare the binding affinities of various ligands with the equation: Ki = [IC50]/(1 + [1-NPN]/K1-NPN), where IC50 represents the ligand concentrations displacing one half of the initial protein/1-NPN fluorescence, and [1-NPN] is the free concentration of 1-NPN at 2 μM.

Experiment [5] has as its target T2, PxutCSP19-T1. The experiment is described as follows: Fluorescence competitive binding assay (1-NPN displacement), truncated PxutCSP19-T1. As for the experimental part:
as §2
(§3) To determine the effects of an extended N-terminal sequence (approximately 35 amino acids) on the binding specificity of PxutCSP19 to ligands, we next constructed two truncated PxutCSP19s. Firstly, the front 17 amino acids (i.e., EITIGGIERTMSPGVKS, defined as PxutCSP19-T1) and the front 35 amino acids (i.e., […], defined as PxutCSP19-T2) of the N-terminal region without the signal peptide were truncated, respectively. Secondly, the two truncated ORFs (PxutCSP19-T1: 360 bp and PxutCSP19-T2: 306 bp) of PxutCSP19s were separately amplified using RT–PCR with gene-specific primers (Table S2). After that, the amplified products were sub-cloned into pET-30a (+), i.e., pET-30a (+)/PxutCSP19-T1 and pET-30a (+)/PxutCSP19-T2. Using the above-described methods for the expression and purification of proteins, we obtained two truncated proteins. Furthermore, the binding characteristics of the truncated PxutCSP19s to ligands with high affinities were investigated, representing six host odorants and eight insecticides.

Experiment [6] addresses T3, PxutCSP19-T2. The experiment is described as follows: Fluorescence competitive binding assay (1-NPN displacement), truncated PxutCSP19-T2. The method, then:
as §2, §3

T1 sequence (A0A194QJK0 entry or part of it): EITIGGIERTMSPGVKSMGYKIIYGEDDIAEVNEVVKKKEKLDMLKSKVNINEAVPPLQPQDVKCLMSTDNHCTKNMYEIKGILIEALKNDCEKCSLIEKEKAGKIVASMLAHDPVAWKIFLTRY

Turning to `c1ccc(Nc2cccc3ccccc23)cc1` [1-NPN, N-phenyl-1-naphthylamine], the Kd at PxutCSP19 [1] turned out to be 2.65 ± 0.35 µM; at PxutCSP19-T1 [2], 2.12 ± 0.47 µM; on PxutCSP19-T2 [3], 2.5 ± 0.25 µM.
Regarding `CC1=CCC(=C(C)C)CC1` [Terpinolene], the IC50 turned out to be 34.1 ± 1.31 µM on PxutCSP19 [4]; 33.64 ± 0.16 µM on PxutCSP19-T1 [5] (T1, read-out: IC50); 31.6 ± 1.67 µM at PxutCSP19-T2 [6] (T2, read-out: IC50). For the same molecule, the inhibition at 20 µM at PxutCSP19 [4] (read-out: F.D. (fluorescent displacement rate of ligands), Wildtype (WT), ligand at 20 μM, PxutCSP19/1-NPN each 2 μM, NB = no binding) is greater than 40%; at PxutCSP19-T1 [5] (T1 (17 N-terminal residues truncated), ligand at 20 μM, read-out: F.D. (fluorescent displacement rate of ligands)), 40.1%; on PxutCSP19-T2 [6] (T2 (35 N-terminal residues truncated), ligand at 20 μM, read-out: F.D. (fluorescent displacement rate of ligands)), 38.5%. In addition, the inhibition constant Ki came out at 21.14 ± 0.1 µM on PxutCSP19-T1 [5] (T1, Ki = [IC50]/(1 + [1-NPN]/K1-NPN)) and 20.8 ± 1.1 µM at PxutCSP19-T2 [6] (T2, Ki = [IC50]/(1 + [1-NPN]/K1-NPN)).

A word on the IC50: it is the concentration at which inhibition is half-maximal. As usually defined, the Ki is a measure of affinity in units of concentration, obtained from inhibition or displacement.
